Data reported in patent US20250034130A1, “Crystal Form of Tolebrutinib, Preparation Method Therefor and Use Thereof” (Principia Biopharma Inc., priority 2021, published 2025).
“Also recorded” adds a separate entry of the source.

How the values were obtained:
Assay type in all cases: physicochemical
[1] = Physical and chemical stability on storage in opened packages (purity by UPLC, solid form by XRPD); settings: for Chemical purity after storage (in words): 60° C./75% RH (b74 also name 80° C. and light)
Procedure: X-ray powder diffraction patterns in the present disclosure were acquired by a Bruker X-ray powder diffractometer. The parameters of the X-ray powder diffraction method of the present disclosure are as follows: • X-Ray: Cu, Kα • Kα1 (Å): 1.54060; Kα2 (Å): 1.54439 • Kα2/Kα1 intensity ratio: 0.50
(§1) The related substance in the present disclosure was detected by UPLC and the parameters are shown below.
Said “room temperature” is not a specific temperature, but a temperature range of 10-30° C. Said “open packaged” is putting the sample into a glass vial, covering the vial with aluminum foil, and punching 5-10 holes on the foil.
Form CSII of the present disclosure and the prior art amorphous form were weighed and stored under 25° C./60% RH, 40° C./75% RH and 60° C./75% RH conditions, in opened packages, respectively. The purity and solid form were determined by UPLC and XRPD. The results are listed in Table 3, and the overlaid XRPD patterns of Form CSII before and after storage for stability evaluation are shown in FIG. 4.
Form CSIII of the present disclosure and the prior art amorphous form were weighed and stored under 25° C./60% RH, 40° C./75% RH and 60° C./75% RH conditions, in opened packages, respectively. The purity and solid form were determined by UPLC and XRPD. The results are listed in Table 10, and the overlaid XRPD patterns of Form CSIII before and after storage for stability evaluation are shown in FIG. 9.
Form CSIV of the present disclosure and the prior art amorphous form were weighed and stored under 25° C./60% RH and 40° C./75% RH conditions, in opened packages, respectively. The purity and solid form were determined by UPLC and XRPD. The results are listed in Table 16, and the overlaid XRPD patterns of Form CSIV before and after storage for stability evaluation are shown in FIG. 15.

[2] = Stability at high temperature (80° C., 2 days, purity by UPLC); settings: for Purity change / Chemical purity (in words): 2 days; for Purity change: glass vial with cap
Procedure: as §1
Certain amounts of Form CSII of the present disclosure and the prior art amorphous form were weighted and stored at 80° C. for 2 days, and the purities of the solids before and after storage were determined by UPLC, the results are as shown in Table 4.
Certain amounts of Form CSIII of the present disclosure and the prior art amorphous form were weighted and stored at 80° C. for 2 days, and the purities of the solids before and after storage were determined by UPLC, the results are as shown in Table 11.
Certain amounts of Form CSIV of the present disclosure and the prior art amorphous form were stored at 80° C. for 2 days, and the purities of the solids before and after storage were determined by UPLC, the results are as shown in Table 17.

[3] = Light stability (Chinese Pharmacopoeia method, purity by UPLC); settings: light not less than 1.2×10^6 lux-hr, near-UV not less than 200 W-hr/m^2; for Purity change: 1 week; for Chemical purity (in words): about 1 week
Description: as §1
Certain amounts of Form CSII of the present disclosure and the prior art amorphous form were weighted and stored for about 1 week, in accordance with the method of the Chinese Pharmacopoeia, under the condition that the total illumination of the light source was not less than […] and the energy of the near-ultraviolet lamp was not less than 200 W-hr/m^2, the purities of the solids before and after storage were measured by UPLC and the results are shown in Table 5.
Certain amounts of Form CSIII of the present disclosure and the prior art amorphous form were weighted and stored for about 1 week, in accordance with the method of the Chinese Pharmacopoeia, under the condition that the total illumination of the light source was not less than 1.2×10^6 lux-hr and the energy of the near-ultraviolet lamp was not less than 200 W-hr/m^2, the purities of the solids before and after storage were measured by UPLC and the results are shown in Table 12.
Certain amounts of Form CSIV of the present disclosure and the prior art amorphous form were weighted and stored for about 1 week, in accordance with the method of the Chinese Pharmacopoeia, under the condition that the total illumination of the light source was not less than 1.2×10^6 lux-hr and the energy of the near-ultraviolet lamp was not less than 200 W-hr/m^2, the purities of the solids before and after storage were measured by UPLC and the results are shown in Table 18.

[4] = Hygroscopicity by DVS (0% RH-95% RH-0% RH at 25° C.); settings: for Weight gain at 80% RH: DVS; for Weight gain at 80% RH / Hygroscopicity class: 25° C.; for Hygroscopicity class: weight gain at 80% RH
Procedure: DVS was measured via an SMS (Surface Measurement Systems Ltd.) intrinsic DVS instrument.
Parameters for DVS method are as follows: • Temperature: 25° C. • Gas and flow rate: nitrogen, 200 mL/min • RH range: 0% RH to 95% RH • ^1H NMR were collected from a Bruker Avance II DMX 400M HZ NMR spectrometer. 1-5 mg of sample was weighed and dissolved in 0.5 mL of deuterated dimethyl sulfoxide to obtain a solution with a concentration of 2-10 mg/mL.
Certain amounts of Form CSII of the present disclosure and the prior art amorphous form were sampled for hygroscopicity tests using DVS instrument. The weight change at each relative humidity was recorded during the cycle of 0% RH-95% RH-0% RH at 25° C.
Description and definition of hygroscopicity (general notice 9103 drug hygroscopicity test guidelines in 2020 edition of Chinese Pharmacopoeia, experimental condition: 25±1° C., 80±2% RH):
Certain amounts of Form CSIII of the present disclosure and the prior art amorphous form were sampled for hygroscopicity tests using DVS instrument. The weight change at each relative humidity was recorded during the cycle of 0% RH-95% RH-0% RH at 25° C.
Certain amounts of Form CSIV of the present disclosure and the prior art amorphous form were sampled for hygroscopicity tests using DVS instrument. The weight change at each relative humidity was recorded during the cycle of 0% RH-95% RH-0% RH at 25° C.

[5] = Grinding stability (manual grinding 5 minutes in a mortar, XRPD); settings: ground manually 5 minutes in a mortar
Procedure: Form CSII was grounded manually for 5 minutes in a mortar. XRPD was tested before and after the grinding.
Form CSIII was grounded manually for 5 minutes in a mortar. XRPD was tested before and after the grinding.
Form CSIV was grounded manually for 5 minutes in a mortar. XRPD was tested before and after the grinding.

[6] = Stability of crystalline form in tablet formulation process (XRPD before and after); settings: tablets per Table 7 and Table 8, XRPD
Procedure: According to the formulation and process in Table 7 and Table 8, the tablets were prepared with an appropriate amount of Form CSII of the present disclosure. XRPD was tested before and after formulation.
According to the formulation and process in Table 7 and Table 8, the tablets were prepared with an appropriate amount of Form CSIII of the present disclosure. XRPD was tested before and after formulation.
According to the formulation and process in Table 7 and Table 8, the tablets were prepared with an appropriate amount of Form CSIV of the present disclosure. XRPD was tested before and after formulation.

[7] = 25° C./60% RH, 6 months, open package
[8] = 40° C./75% RH, 2 months, open package
[9] = 40° C./75% RH, 6 months, open package
[10] = 60° C./75% RH, 1 month, open package
[11] = Initial, ICH Q3A (R2) thresholds

For `C=CC(=O)N1CCC[C@@H](n2c(=O)n(-c3ccc(Oc4ccccc4)cc3)c3c(N)nccc32)C1` [Amorphous, (R)-1-(1-acryloylpiperidin-3-yl)-4-amino-3-(4-phenoxyphenyl)-1H-imidazo[4,5-c] pyridin-2(3H)-one, reference compound], which Purity [1, 7] is on record?
Its Purity is 99.57%.

And the Purity change [1, 7]?
The Purity change was −0.23%.

What about the Solid form [1, 7] of the same compound?
Its Solid form is “Amorphous”.

And the “The number of the purities exceeding the qualification thresholds” value (“The number” for short) [1, 7]?
Its value is 1.

What about the “Chemical purity after storage (in words)” value ([1]; 25° C./60% RH, 40° C./75% RH, listed as prior art amorphous form) of the same compound?
Its value is “decreased significantly”.

And the “Chemical purity after storage (in words)” value ([1]; 25° C./60% RH, 40° C./75% RH, listed as prior art solid)?
The value was “decreases significantly”.

And the Purity decrease ([1]; 40° C./75% RH, 2 months)?
Its Purity decrease is 2.18%.

And the Purity [1, 8]?
The Purity was 97.62%.

What about the Purity change [1, 8] of the same compound?
Its Purity change is −2.18%.

And the Solid form [1, 8]?
The Solid form was “Amorphous”.

What about the Purity decrease ([1]; 40° C./75% RH, 6 months) of the same compound?
The Purity decrease was 3.46%.

And the Purity [1, 9]?
The Purity was 96.34%.

And the Purity change [1, 9]?
The Purity change was −3.46%.

What about the Solid form [1, 9] of the same compound?
Its Solid form is “Amorphous”.

What about the “The number” value [1, 9] of the same compound?
The value was 4.

What about the “The number” value ([1]; 40° C./75% RH, 6 months, open package, listed as prior art amorphous form) of the same compound?
The value was “four”.

And the “The number” value ([1]; 40° C./75% RH, 6 months, open package, listed as prior art solid)?
The value was “four”.

What about the Purity decrease ([1]; 60° C./75% RH, 1 month) of the same compound?
The Purity decrease was “over 6.3%”.

And the Purity [1, 10]?
The Purity was 93.48%.

What about the Purity change [1, 10] of the same compound?
Its Purity change is −6.32%.

And the Solid form [1, 10]?
Its Solid form is “Amorphous”.

And the “The number” value [1, 10]?
The value was 4.

What about the “The number” value ([1]; 60° C./75% RH, 1 month, open package, listed as prior art amorphous form) of the same compound?
The value was “four”.

What about the “The number” value ([1]; 60° C./75% RH, 1 month, open package, listed as prior art solid) of the same compound?
Its value is “four”.

What about the Purity ([1]; Initial) of the same compound?
Its Purity is 99.80%.

And the Solid form ([1]; Initial)?
Its Solid form is “Amorphous”.

And the “The number” value [1, 11]?
Its value is 1.

And the Purity change [2]?
The Purity change was −1.16%.

What about the “Chemical purity (in words)” value ([2]; listed as amorphous form) of the same compound?
Its value is “significant degradation”.

What about the Purity change [3] of the same compound?
Its Purity change is −0.11%.

What about the “Chemical purity (in words)” value ([3]; listed as amorphous form) of the same compound?
The value was “significant degradation”.

What about the “Weight gain at 80% RH” value ([4]; 80% RH, listed as Prior art solid) of the same compound?
Its value is 3.69%.

What about the “Weight gain at 80% RH” value ([4]; 80% RH, listed as The prior art amorphous form) of the same compound?
Its value is 3.69%.

And the “Weight gain at 80% RH” value ([4]; 80% RH, listed as prior art amorphous form)?
The value was 3.69%.

What about the “Weight gain at 80% RH” value ([4]; 80% RH, listed as prior art solid) of the same compound?
The value was 3.69%.

What about the Hygroscopicity class ([4]; listed as prior art amorphous form) of the same compound?
Its Hygroscopicity class is “hygroscopic”.

And the Hygroscopicity class ([4]; listed as prior art solid)?
The Hygroscopicity class was “hygroscopic”.

With `C=CC(=O)N1CCC[C@@H](n2c(=O)n(-c3ccc(Oc4ccccc4)cc3)c3c(N)nccc32)C1` [Form CSII, (R)-1-(1-acryloylpiperidin-3-yl)-4-amino-3-(4-phenoxyphenyl)-1H-imidazo[4,5-c] pyridin-2(3H)-one] as the compound, how does the “Chemical purity during storage” value ([1]; 25° C./60% RH) read?
The value was “above 99.8%”.

What about the “Time for which the crystalline state doesn't change / form is stable” value ([1]; 25° C./60% RH) of the same compound?
Its value is “at least 6 months”.

And the Purity [1, 7]?
Its Purity is 99.89%.

What about the Purity change [1, 7] of the same compound?
The Purity change was “+0.03%”.

What about the “The number” value [1, 7] of the same compound?
The value was 0.

And the “Time for which the crystalline state doesn't change / form is stable” value ([1]; 40° C./75% RH)?
The value was “at least 6 months”.

What about the “Chemical purity during storing” value ([1]; 40° C./75% RH and 60° C./75% RH) of the same compound?
The value was “above 99.8%”.

And the Purity [1, 9]?
Its Purity is 99.87%.

What about the Purity change [1, 9] of the same compound?
Its Purity change is “+0.01%”.

What about the “The number” value [1, 9] of the same compound?
Its value is 0.

What about the “Time for which the crystalline state doesn't change” value ([1]; 60° C./75% RH) of the same compound?
Its value is “at least 1 month”.

What about the “Solid form and purity after storage” value ([1]; 60° C./75% RH, 1 month) of the same compound?
Its value is “remained basically unchanged”.

What about the Purity [1, 10] of the same compound?
Its Purity is 99.82%.

What about the Purity change [1, 10] of the same compound?
Its Purity change is −0.04%.

What about the “The number” value [1, 10] of the same compound?
Its value is 0.

And the Purity ([1]; Initial)?
The Purity was 99.86%.

What about the “The number” value [1, 11] of the same compound?
Its value is 0.

And the “Impurity content versus qualification threshold” value ([1]; throughout the stability investigation processes)?
Its value is “did not exceed the qualification thresholds; also recorded: did not exceed the qualificated threshold”.

And the “Time for which chemical purity remains substantially unchanged” value [2]?
The value was “at least 2 days”.

And the “Chemical purity (in words)” value [2]?
The value was “basically remained unchanged”.

What about the Purity change [2] of the same compound?
The Purity change was “+0.01%”.

What about the Purity change [3] of the same compound?
The Purity change was −0.02%.

What about the “Chemical purity (in words)” value [3] of the same compound?
Its value is “basically remained unchanged”.

What about the “Time for which there is no change in the purity” value [3] of the same compound?
Its value is “at least 1 week”.

What about the “Weight gain relative to that of the prior art” value ([4]; 80% RH) of the same compound?
Its value is “⅙”.

And the “Weight gain at 80% RH” value ([4]; 80% RH)?
The value was 0.60%.

And the “Crystalline state after the DVS test” value ([4]; XRPD before and after DVS)?
The value was “remained unchanged”.

And the Hygroscopicity class [4]?
The Hygroscopicity class was “slightly hygroscopic”.

What about the “Crystalline state after grinding” value [5] of the same compound?
Its value is “remains unchanged”.

What about the “Crystalline state after formulation process (mixed with excipients, tableted)” value [6] of the same compound?
Its value is “remained unchanged; also recorded: did not change”.
